According to ChEMBL document CHEMBL3885861, “Open TG-GATES”:

Species: Rattus norvegicus
Assay: Open TG-GATES - Regimen: Single
Assay type: toxicity, organism-based, Sprague-Dawley
Set-up: regimen Single, gender Male, age 6 weeks
Details: in vivo, iv, route intravenous injection; for MCV / Mono / Neu / PT / Plat / RBC / Ret / WBC / APTT / Bas / Eos / Fbg / Hb / Ht / Lym / MCH / MCHC: tissue Blood; for KIDNEY_L / KIDNEY_R / KIDNEY_TOTAL: tissue Kidney; for LIVER: tissue Liver; for A/G / ALP / ALT / AST / BUN / CRE / Ca / Cl / DBIL / GLC / IP / K / LDH / Na / PL / RALB / TBIL / TC / TG / TP / gamma-GTP: tissue Plasma
[1] = 0 mg/kg, 24 h, dose level Control

Work on `C[C@@H]1[C@H](O)[C@@H](C)/C=C/C=C/C=C/C=C/C=C/C=C/C=C/[C@H](O[C@@H]2O[C@H](C)[C@@H](O)[C@H](N)[C@@H]2O)C[C@@H]2O[C@](O)(C[C@@H](O)C[C@@H](O)[C@H](O)CC[C@@H](O)C[C@@H](O)CC(=O)O[C@H]1C)C[C@H](O)[C@H]2C(=O)O` [AMPHOTERICIN B] yielded an MCV [1] of 62.4 fL, a Mono [1] of 2.2% and a Neu [1] of 17%. For the same compound, the PT [1] was 12.3 s, the Plat [1] was 145.5 x10_4/uL and the RBC [1] was 621.8 x10_4/ul. It also gave a Ret [1] of 7.1%, a WBC [1] of 93.8 x10_2/uL and a KIDNEY_L [1] of 1 g. For the same compound, the KIDNEY_R [1] was 1 g, the KIDNEY_TOTAL [1] was 1.9 g and the LIVER [1] was 10.4 g. For the same compound, the A/G [1] was 0.9, the ALP [1] was 1818.6 IU/L and the ALT [1] was 37.6 IU/L. It also gave an AST [1] of 66.8 IU/L, a BUN [1] of 15.2 mg/dL and a CRE [1] of 0.2 mg/dL. It also gave a Ca [1] of 11 mg/dL, a Cl [1] of 105.6 meq/L and a DBIL [1] of 0.02 mg/dL. It also gave a GLC [1] of 169 mg/dL, an IP [1] of 7.7 mg/dL and a K [1] of 3.8 meq/L. The LDH [1] was 53.2 IU/L, the Na [1] was 143.4 meq/L and the PL [1] was 133.4 mg/dL. For the same compound, the RALB [1] was 2.6 g/dL, the TBIL [1] was 0.054 mg/dL and the TC [1] was 74.2 mg/dL. The TG [1] was 96.8 mg/dL, the TP [1] was 5.8 g/dL and the gamma-GTP [1] was 1.6 IU/L. It also gave a TERMINAL_BW (1 mg/kg, 3 h, dose level Low) of 214.2 g, an APTT (1 mg/kg, 3 h, dose level Low) of 16.8 s and a Bas (1 mg/kg, 3 h, dose level Low) of 0%. It also gave an Eos (1 mg/kg, 3 h, dose level Low) of 0.6%, a Fbg (1 mg/kg, 3 h, dose level Low) of 257 mg/dL and a Hb (1 mg/kg, 3 h, dose level Low) of 13.6 g/dL. The Ht (1 mg/kg, 3 h, dose level Low) was 39.9%, the Lym (1 mg/kg, 3 h, dose level Low) was 74.6% and the MCH (1 mg/kg, 3 h, dose level Low) was 21.2 pg. It also gave an MCHC (1 mg/kg, 3 h, dose level Low) of 34.1%, an MCV (1 mg/kg, 3 h, dose level Low) of 62 fL and a Mono (1 mg/kg, 3 h, dose level Low) of 3.2%. The Neu (1 mg/kg, 3 h, dose level Low) was 20.6%, the PT (1 mg/kg, 3 h, dose level Low) was 13 s and the Plat (1 mg/kg, 3 h, dose level Low) was 139.1 x10_4/uL. For the same compound, the RBC (1 mg/kg, 3 h, dose level Low) was 644.6 x10_4/ul, the Ret (1 mg/kg, 3 h, dose level Low) was 7.7% and the WBC (1 mg/kg, 3 h, dose level Low) was 97.1 x10_2/uL. It also gave a KIDNEY_L (1 mg/kg, 3 h, dose level Low) of 1 g, a KIDNEY_R (1 mg/kg, 3 h, dose level Low) of 1 g and a KIDNEY_TOTAL (1 mg/kg, 3 h, dose level Low) of 1.9 g. For the same compound, the LIVER (1 mg/kg, 3 h, dose level Low) was 9.8 g, the A/G (1 mg/kg, 3 h, dose level Low) was 0.9 and the ALP (1 mg/kg, 3 h, dose level Low) was 1691 IU/L. For the same compound, the ALT (1 mg/kg, 3 h, dose level Low) was 40 IU/L, the AST (1 mg/kg, 3 h, dose level Low) was 85.4 IU/L and the BUN (1 mg/kg, 3 h, dose level Low) was 18.8 mg/dL. The CRE (1 mg/kg, 3 h, dose level Low) was 0.2 mg/dL, the Ca (1 mg/kg, 3 h, dose level Low) was 10.9 mg/dL and the Cl (1 mg/kg, 3 h, dose level Low) was 106.6 meq/L. The DBIL (1 mg/kg, 3 h, dose level Low) was 0.018 mg/dL, the GLC (1 mg/kg, 3 h, dose level Low) was 173.4 mg/dL and the IP (1 mg/kg, 3 h, dose level Low) was 8.6 mg/dL. It also gave a K (1 mg/kg, 3 h, dose level Low) of 3.9 meq/L, an LDH (1 mg/kg, 3 h, dose level Low) of 58.8 IU/L and a Na (1 mg/kg, 3 h, dose level Low) of 143.2 meq/L. The PL (1 mg/kg, 3 h, dose level Low) was 129.4 mg/dL, the RALB (1 mg/kg, 3 h, dose level Low) was 2.6 g/dL and the TBIL (1 mg/kg, 3 h, dose level Low) was 0.058 mg/dL. It also gave a TC (1 mg/kg, 3 h, dose level Low) of 74 mg/dL, a TG (1 mg/kg, 3 h, dose level Low) of 53.8 mg/dL and a TP (1 mg/kg, 3 h, dose level Low) of 5.6 g/dL. It also gave a gamma-GTP (1 mg/kg, 3 h, dose level Low) of 2 IU/L, a TERMINAL_BW (1 mg/kg, 6 h, dose level Low) of 208.2 g and an APTT (1 mg/kg, 6 h, dose level Low) of 15.4 s. The Bas (1 mg/kg, 6 h, dose level Low) was 0%, the Eos (1 mg/kg, 6 h, dose level Low) was 0.8% and the Fbg (1 mg/kg, 6 h, dose level Low) was 286.6 mg/dL. The Hb (1 mg/kg, 6 h, dose level Low) was 13.3 g/dL, the Ht (1 mg/kg, 6 h, dose level Low) was 39.5% and the Lym (1 mg/kg, 6 h, dose level Low) was 68.6%. It also gave an MCH (1 mg/kg, 6 h, dose level Low) of 20.9 pg, an MCHC (1 mg/kg, 6 h, dose level Low) of 33.7% and an MCV (1 mg/kg, 6 h, dose level Low) of 62 fL. It also gave a Mono (1 mg/kg, 6 h, dose level Low) of 2.8%, a Neu (1 mg/kg, 6 h, dose level Low) of 27% and a PT (1 mg/kg, 6 h, dose level Low) of 12.8 s. It also gave a Plat (1 mg/kg, 6 h, dose level Low) of 135.3 x10_4/uL, an RBC (1 mg/kg, 6 h, dose level Low) of 636.4 x10_4/ul and a Ret (1 mg/kg, 6 h, dose level Low) of 7.9%. For the same compound, the WBC (1 mg/kg, 6 h, dose level Low) was 98.4 x10_2/uL, the KIDNEY_L (1 mg/kg, 6 h, dose level Low) was 1 g and the KIDNEY_R (1 mg/kg, 6 h, dose level Low) was 0.9 g. It also gave a KIDNEY_TOTAL (1 mg/kg, 6 h, dose level Low) of 1.9 g, an LIVER (1 mg/kg, 6 h, dose level Low) of 9 g and an A/G (1 mg/kg, 6 h, dose level Low) of 0.8. The ALP (1 mg/kg, 6 h, dose level Low) was 1534.4 IU/L, the ALT (1 mg/kg, 6 h, dose level Low) was 38.2 IU/L and the AST (1 mg/kg, 6 h, dose level Low) was 70.8 IU/L. For the same compound, the BUN (1 mg/kg, 6 h, dose level Low) was 16.4 mg/dL, the CRE (1 mg/kg, 6 h, dose level Low) was 0.1 mg/dL and the Ca (1 mg/kg, 6 h, dose level Low) was 10.7 mg/dL. For the same compound, the Cl (1 mg/kg, 6 h, dose level Low) was 106.6 meq/L, the DBIL (1 mg/kg, 6 h, dose level Low) was 0.016 mg/dL and the GLC (1 mg/kg, 6 h, dose level Low) was 180 mg/dL. For the same compound, the IP (1 mg/kg, 6 h, dose level Low) was 10.1 mg/dL, the K (1 mg/kg, 6 h, dose level Low) was 3.4 meq/L and the LDH (1 mg/kg, 6 h, dose level Low) was 57.2 IU/L. For the same compound, the Na (1 mg/kg, 6 h, dose level Low) was 144.6 meq/L, the PL (1 mg/kg, 6 h, dose level Low) was 135 mg/dL and the RALB (1 mg/kg, 6 h, dose level Low) was 2.6 g/dL. The TBIL (1 mg/kg, 6 h, dose level Low) was 0.062 mg/dL, the TC (1 mg/kg, 6 h, dose level Low) was 83.8 mg/dL and the TG (1 mg/kg, 6 h, dose level Low) was 41.4 mg/dL. It also gave a TP (1 mg/kg, 6 h, dose level Low) of 5.7 g/dL, a gamma-GTP (1 mg/kg, 6 h, dose level Low) of 1.4 IU/L and a TERMINAL_BW (1 mg/kg, 9 h, dose level Low) of 208.6 g. For the same compound, the APTT (1 mg/kg, 9 h, dose level Low) was 16.5 s, the Bas (1 mg/kg, 9 h, dose level Low) was 0% and the Eos (1 mg/kg, 9 h, dose level Low) was 1%. The Fbg (1 mg/kg, 9 h, dose level Low) was 296.2 mg/dL, the Hb (1 mg/kg, 9 h, dose level Low) was 13.2 g/dL and the Ht (1 mg/kg, 9 h, dose level Low) was 38.5%. It also gave a Lym (1 mg/kg, 9 h, dose level Low) of 71.4%, an MCH (1 mg/kg, 9 h, dose level Low) of 20.9 pg and an MCHC (1 mg/kg, 9 h, dose level Low) of 34.2%. It also gave an MCV (1 mg/kg, 9 h, dose level Low) of 61 fL, a Mono (1 mg/kg, 9 h, dose level Low) of 1.8% and a Neu (1 mg/kg, 9 h, dose level Low) of 25.4%. For the same compound, the PT (1 mg/kg, 9 h, dose level Low) was 12.9 s, the Plat (1 mg/kg, 9 h, dose level Low) was 132.4 x10_4/uL and the RBC (1 mg/kg, 9 h, dose level Low) was 631.6 x10_4/ul. For the same compound, the Ret (1 mg/kg, 9 h, dose level Low) was 7.9%, the WBC (1 mg/kg, 9 h, dose level Low) was 97.1 x10_2/uL and the KIDNEY_L (1 mg/kg, 9 h, dose level Low) was 0.9 g. For the same compound, the KIDNEY_R (1 mg/kg, 9 h, dose level Low) was 0.9 g and the KIDNEY_TOTAL (1 mg/kg, 9 h, dose level Low) was 1.9 g.
